Legend:
Assay type in all cases: in vivo
Echinochloa oryzicola = test: Submerged foliar treatment test (Test Example 3); settings: water depth 3 cm, cotyledon to 1-leaf stage, wettable powder, active ingredient 10 g/a, 28th day from the treatment
Procedure: (§1) The herbicidal effect was evaluated in terms of herbicidal rate obtained from the following equation: Herbicidal rate (%)=[1−(Weight of weeds above the ground in a treated plot)/(Weight of weeds above the ground in a non-treated plot)]×100
(§2) and was expressed by herbicidal index according to the following criteria.
(§3) Alluvial soil from a paddy field was put in a resin-made vat having an area of 200 cm^2. After fertilization, seeds of Echinochloa oryzicola, Rotala indica and Scirpus juncoides were cast on the soil and uniformly covered with the soil, and water was poured onto the soil to keep a water depth of 3 cm. Then, cultivation was continued in a greenhouse, and when the weeds to be tested reached the cotyledon stage to 1-leaf stage, the wettable powder obtained in Formulation Example 1 was diluted with water and a predetermined amount thereof was added dropwise uniformly to the weeds by means of a pipette to give 10 g of the active ingredient per an are. Thereafter, cultivation was further continued in the greenhouse, and the herbicidal effect was examined on the 28th day from the treatment. The results obtained are shown in Table 9 (the compound numbers in Table 9 correspond to those in Tables 1 to 6).

Rotala indica = test: Submerged foliar treatment test (Test Example 3); settings: water depth 3 cm, cotyledon to 1-leaf stage, wettable powder, active ingredient 10 g/a, 28th day from the treatment
Procedure: as §1, §2, §3

Scirpus juncoides = test: Submerged foliar treatment test (Test Example 3); settings: water depth 3 cm, cotyledon to 1-leaf stage, wettable powder, active ingredient 10 g/a, 28th day from the treatment
Procedure: as §1, §2, §3

Brassica juncea = test: Field foliar treatment test (Test Example 1); settings: foliar spray at 1.0- to 2.0-leaf stage, wettable powder, active ingredient 10 g/a, 21st day from the treatment
Procedure: (§4) Alluvial soil from a field was put in a resin-made vat having an area of 200 cm^2. After fertilization, the seeds of Echinochloa crus-galli, Brassica juncea, and Ipomoea purpurea were cast on the soil and uniformly covered with the soil. Then, cultivation was continued in a greenhouse, and when the weeds to be tested reached the 1.0- to 2.0-leaf stage, the wettable powder obtained in Formulation Example 1 was diluted with water and a predetermined amount thereof was sprayed uniformly to the weeds by means of a small-sized power pressure spray to give 10 g of the active ingredient per an are. Thereafter, cultivation was further continued in the greenhouse, and the herbicidal effect was examined on the 21st day from the treatment. The results obtained are shown in Table 7 (the compound numbers in Table 7 correspond to those in Table 1 to 6). The herbicidal effect was evaluated in terms of herbicidal rate obtained from the following equation: Herbicidal rate (%)=[1−(Weight of weeds above the ground in a treated plot)/(Weight of weeds above the ground in a non-treated plot)]×100 and was expressed by herbicidal index according to the following criteria. [table]

Ipomoea purpurea = test: Field foliar treatment test (Test Example 1); settings: foliar spray at 1.0- to 2.0-leaf stage, wettable powder, active ingredient 10 g/a, 21st day from the treatment
Procedure: as §4

Echinochloa crus-galli = test: Field foliar treatment test (Test Example 1); settings: foliar spray at 1.0- to 2.0-leaf stage, wettable powder, active ingredient 10 g/a, 21st day from the treatment
Procedure: as §4

Structure (SMILES) | Herbicidal effect Echinochloa oryzicola (herbicidal index) (Echinochloa oryzicola) | Herbicidal effect Rotala indica (herbicidal index) (Rotala indica) | Herbicidal effect Scirpus juncoides (herbicidal index) (Scirpus juncoides) | Herbicidal effect Brassica juncea (herbicidal index) (Brassica juncea) | Herbicidal effect Ipomoea purpurea (herbicidal index) (Ipomoea purpurea) | Herbicidal effect Echinochloa crus-galli (herbicidal index) (Echinochloa crus-galli)
CC(=O)OC1COCC1Oc1nc(-c2cccc(C(F)(F)F)c2)c2cc(C)sc2n1 (mixture of isomers) [6-188] | 5 (91 to 100) | 5 (91 to 100) | 4 (71 to 90) | – | – | –
Cc1cc2c(-c3cccc(OC(F)(F)F)c3)nc(Cl)nc2s1 [5-9] | 5 (91 to 100) | 5 (91 to 100) | 4 (71 to 90) | – | – | –
CCCOc1nc(-c2cccc(C(F)(F)F)c2)c2cc(CC)sc2n1 [6-8] | 5 (91 to 100) | 4 (71 to 90) | 4 (71 to 90) | – | – | –
CCOc1nc(-c2cccc(C(F)(F)F)c2)c2cc(C)sc2n1 [6-24] | 5 (91 to 100) | 5 (91 to 100) | 4 (71 to 90) | – | – | –
CCOc1nc(-c2cccc(OC(F)(F)F)c2)c2cc(C)sc2n1 [6-34] | 5 (91 to 100) | 5 (91 to 100) | 5 (91 to 100) | – | – | –
Cc1cc2c(-c3cccc(OC(F)F)c3)nc(OC(C)C)nc2s1 [6-41] | 5 (91 to 100) | 5 (91 to 100) | 4 (71 to 90) | – | – | –
CCCCCOc1nc(-c2ccccc2C)c2cc(C)sc2n1 [6-47] | 4 (71 to 90) | 3 (51 to 70) | 1 (6 to 30) | – | – | –
CCOc1nc(-c2sccc2C)c2cc(C)sc2n1 [6-50] | 3 (51 to 70) | 4 (71 to 90) | 3 (51 to 70) | – | – | –
CCCOc1nc(-c2cccc(Cl)c2)c2cc(C)sc2n1 [6-52] | 5 (91 to 100) | 5 (91 to 100) | 3 (51 to 70) | – | – | –
Cc1cc2c(-c3cccc(Cl)c3)nc(OC3CCCC3)nc2s1 [6-54] | 5 (91 to 100) | 5 (91 to 100) | 4 (71 to 90) | – | – | –
CCCOc1nc(-c2ccccc2Cl)c2cc(C)sc2n1 [6-56] | 5 (91 to 100) | 5 (91 to 100) | 4 (71 to 90) | – | – | –
Cc1cc2c(-c3cccc(Br)c3)nc(OCC(C)(C)C)nc2s1 [6-60] | 5 (91 to 100) | 5 (91 to 100) | 5 (91 to 100) | – | – | –
CCCOc1nc(-c2cccc(OC)c2)c2cc(C)sc2n1 [6-62] | 5 (91 to 100) | 5 (91 to 100) | 5 (91 to 100) | – | – | –
Cc1cc2c(-c3cccc(C(F)(F)F)c3)nc(OC(C)C(C)C)nc2s1 (stereo not drawn) [6-72] | 5 (91 to 100) | 5 (91 to 100) | 3 (51 to 70) | – | – | –
Cc1cc2c(-c3cccc(SC(F)(F)F)c3)nc(OC3CCCC3)nc2s1 [6-86] | 5 (91 to 100) | 5 (91 to 100) | 4 (71 to 90) | – | – | –
Cc1cc2c(-c3cccc(SC(F)(F)F)c3)nc(OCC(F)F)nc2s1 [6-116] | 5 (91 to 100) | 5 (91 to 100) | 4 (71 to 90) | – | – | –
Cc1cc2c(-c3cccc(SC(F)F)c3)nc(OCC(F)(F)F)nc2s1 [6-127] | 5 (91 to 100) | 5 (91 to 100) | 4 (71 to 90) | – | – | –
Cc1cc2c(-c3cccc(C(F)(F)F)c3)nc(Oc3ccccc3)nc2s1 [6-146] | 4 (71 to 90) | 5 (91 to 100) | 2 (31 to 50) | – | – | –
Cc1cc2c(-c3cccc(C(F)(F)F)c3)nc(OS(=O)(=O)CCl)nc2s1 [6-149] | 5 (91 to 100) | 5 (91 to 100) | 4 (71 to 90) | – | – | –
Cc1cc2c(-c3cccc(C(F)(F)F)c3)nc(OS(=O)(=O)CCCCl)nc2s1 [6-157] | 5 (91 to 100) | 5 (91 to 100) | 4 (71 to 90) | – | – | –
Cc1cc2c(-c3cccc(C(F)(F)F)c3)nc(OS(=O)(=O)N(C)C)nc2s1 [6-160] | 5 (91 to 100) | 5 (91 to 100) | 4 (71 to 90) | – | – | –
Cc1cc2c(-c3cccc(SC(F)(F)F)c3)nc(OS(C)(=O)=O)nc2s1 [6-164] | 5 (91 to 100) | 5 (91 to 100) | 4 (71 to 90) | – | – | –
Cc1cc2c(-c3cccc(C(F)(F)F)c3)nc(N(C)C)nc2s1 [6-169] | 5 (91 to 100) | 5 (91 to 100) | 2 (31 to 50) | – | – | –
Cc1cc2c(-c3cccc(C(F)(F)F)c3)nc(S(C)(=O)=O)nc2s1 [6-174] | 1 (6 to 30) | 5 (91 to 100) | 3 (51 to 70) | – | – | –
Cc1cc2c(-c3ccccc3C(F)(F)F)nc(-n3ccnc3)nc2s1 [6-191] | 5 (91 to 100) | 5 (91 to 100) | 3 (51 to 70) | – | – | –
Cc1cc2c(-c3cccc(C)c3C)nc(OCC(F)(F)F)nc2s1 [6-245] | – | – | – | 5 (91 to 100) | 5 (91 to 100) | 4 (71 to 90)
Cc1cc2c(-c3ccccc3C(F)(F)F)nc(OCC(F)(F)C(F)F)nc2s1 [6-249] | – | – | – | 5 (91 to 100) | 5 (91 to 100) | 4 (71 to 90)
Cc1cc2c(-c3ccccc3OC(F)(F)F)nc(OCC(F)(F)F)nc2s1 [6-251] | – | – | – | 5 (91 to 100) | 5 (91 to 100) | 5 (91 to 100)
CCCOc1nc(-c2ccc(F)c(C(F)(F)F)c2)c2cc(C)sc2n1 [Compound No. 6-29, 4-[4-fluoro-3-(trifluoromethyl)phenyl]-6-methyl-2-propoxythieno[2,3-d]pyrimidine] | – | – | – | 4 (71 to 90) | 5 (91 to 100) | 4 (71 to 90)

From patent US20070010402A1, “Novel herbicides, usage thereof, novel thienopyrimidine derivatives, intermediates of the same, and process for production thereof” (NIHON NOHYAKU CO., LTD.,, priority 2002, published 2007)
